“Also recorded” adds a separate entry of the source.

Experimental findings from PMC4473678, “Swedish mutant APP-based BACE1 binding site peptide reduces APP β-cleavage and cerebral Aβ levels in Alzheimer’s mice” (Scientific Reports, 2015) are described below.

Data set [1] has as its system BACE1 in CHO/APPwt cells. The experiment in a line: Co-localization with BACE1 in CHO/APPwt cells (immunocytochemistry). Type of data set: cell-based, Chinese hamster. Particulars: biotin-labeled peptide 20 μM, 30 min, anti-BACE1 and anti-biotin staining. On the procedure: (§1) Following application of blocking buffer, these cells were stained with mouse anti-BACE1 and anti-biotin antibodies overnight at 4 °C for immunocytochemical analysis. In order to determine the inhibitory effects of TAT-APPsweBBP on BACE1-mediated APP β-cleavage and subsequent Aβ production, both CHO/APPwt and CHO/APPswe cells were plated in 24 well-plates (3×10^5/well) and treated with TAT-APPsweBBP at 0 to 20 μM for 24 h. The cultured media were collected for Aβ and sAPPα analysis by ELISA and WB. Cell lysates were also prepared for analysis of APP amyloidogenic processing by WB.

The test system of data set [2] is CHO/APPwt cells. The experiment in a line: APP processing in CHO/APPwt cells (WB, ELISA). Type of data set: cell-based, Chinese hamster. The following applies: 0 to 20 μM, 24 h. Here is the method: Chinese hamster ovary (CHO) cells engineered to express human APPwt (CHO/APPwt cells) or human APPswe (CHO/APPswe cells) were kindly provided by Dr. Stefanie Hahn and Dr. Sascha Weggen (University of Heinrich Heine, Dusseldorf, Germany). As described in our recent report, these cells were cultured in Dulbecco’s modified Eagle’s medium with 10% fetal bovine serum, 1 mM sodium pyruvate and 100 U/mL of penicillin/streptomycin.
as §1
WB analysis was performed as previously described. Briefly, the proteins from the various cell-free suspensions, cell lysates and brain homogenates were electrophoretically separated using 10% bicine/tris gel (8 M urea) for proteins less than 5 kD or 10% tricine/tris gels for larger proteins. Electrophoresed proteins were transferred to polyvinylidene difluoride membranes (Bio-Rad, Richmond, CA), washed and blocked for 2 h at room temperature in Tris-buffered saline containing 5% (w/v) nonfat dry milk (TBS/NFDM). After blocking, membranes were hybridized for 2 h with various primary antibodies, washed and incubated for 1 h with the appropriate HRP-conjugated secondary antibody in TBS/NFDM. Blots were developed using the luminol reagent (Thermo Fisher Scientific, Waltham, MA).
Mouse brains were homogenized in ice-cold lysis buffer for 30 s using a Minilys tissue homogenizer (Bertin Technologies, Montigny-le-Bretonneux, France) set at high speed, allowed to stand for 15 min at 4 °C, and centrifuged at 15000 rpm for 30 min. Soluble Aβ1−40/42 species and sAPPα were directly detected in cultured cell media or brain homogenates using the Aβ1−40/42 (Invitrogen) and sAPPα ELISA kits (IBL-America, Minneapolis, MN). Detergent-insoluble total […] species were detected in brain by extracting pellets in 5 M guanidine HCl buffer, followed by a 1:20 dilution in lysis buffer.

Data set [3] deals with brain of 5XFAD mice. Description: BBB penetration after i.p. administration (brain section confocal imaging).
Method: 5XFAD mice at 2 months of age (n = 5, female) were treated intraperitoneally with biotin-labeled TAT-APPsweBBP or APPsweBBP (100 nmol/kg) daily for 5 days and then euthanized 4 h after the last injection. Brain tissues were removed, sectioned and stained with anti-BACE1 and anti-biotin antibodies.
Fixed cell cultures and brain sections were stained with indicated antibodies and then treated with donkey anti-mouse IgG conjugated with Alexa Fluor 488 (1:200) or goat anti-rabbit IgG conjugated with Alexa Fluor 594 (1:200; Invitrogen, Carlsbad, CA). The slides were then washed, mounted with DAPI medium (Vector Laboratories, Burlingame, CA) and visualized with an Olympus FV1000 confocal microscope (Tokyo, Japan).
The mark [4] stands for this setting: *P < 0.05, **P < 0.01, three independent experiments, each triplicated.

Turning to YGRKKRRQRRREISEVNLDAEFR, in data set [1] (listed as TAT-APPsweBBP), the “co-localization with BACE1” value is reported as “much more strongly co-localized with BACE1 protein compared to APPsweBBP”. Also, in data set [1] (listed as TAT-APPsweBPP), the “co-localization with BACE1” value was “strong association with BACE1 in both cytoplasmic membrane and intracellular compartments”. Moreover, in data set [2], the “holo APP expression by WB” value is “leaving holo APP expression unaltered” and the “sAPPα by WB” value is reported as “promoting”. Besides, in data set [2] (setting [4]), the “Aβ1−40/42 by ELISA” value is on record as “significantly decreased” and the “sAPPα by ELISA” value was “increased sAPPα levels in a dose-dependent manner”. For the same sequence, in data set [2] (listed as TAT-APPsweBBP), the “Aβ by WB” value is reported as “markedly decreased Aβs; also recorded: markedly inhibited” and the “α-CTF by WB” value is reported as “increased α-CTF; also recorded: promoting α-CTF”. The “association with BACE1 in brain” value in data set [3] (5XFAD mice, 2 months, n = 5, female, biotin-labeled peptide 100 nmol/kg i.p. daily 5 days, 4 h after last injection) is recorded as “more highly associates with BACE1 compared to APPsweBBP”. For the same sequence, the “BBB penetration / brain distribution” value in data set [3] (5XFAD mice, 2 months, n = 5, female, biotin-labeled peptide 100 nmol/kg i.p. daily 5 days, 4 h after last injection, confocal images, listed as TAT-APPsweBBP) was “highly penetrated the BBB and was detectable in both the cortical and hippocampal regions; also recorded: more permeable across the BBB; also recorded: greater distribution of TAT-APPsweBBP than APPsweBBP into cortical and hippocampal regions”. The “BBB penetration (Fig. S4 legend)” value in data set [3] (peripheral injection, Fig. S4) is reported as “freely enters brain microvascular endothelial cells”.
